Results reported in patent US4401660A, “Ester derivatives of 5-O-mycaminosyl tylonolide and method of using same” (Eli Lilly and Company, priority 1981, dated 1983).
Like-named read-outs stand apart in the source and are kept apart here.

Tests used:
Pasteurella multocida = assay: Treatment of Pasteurella infections in chicks (Table V); assay type: in vivo, one-day-old chicks; settings: 30 mg/kg by subcutaneous injection one and four hours post challenge; for mortality at 30 mg/kg: Pasteurella multocida, sc, 4 h, read-out: Deaths in Treated Chicks/Number Treated (converted)
Method in brief: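 Dosing was 30 mg/kg by subcutaneous injection, one and four hours after challenge. Day-old chicks received 0.1 ml of a 10^-3 dilution of a 20-hour tryptose broth culture of avian P. multocida subcutaneously. Nonmedicated infected chicks served as controls, ten per group.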

[1] = tested on: Pasteurella haemolytica 22C; assay: MIC, broth-dilution microtiter test (Table III); assay type: cell-based; parameters: unit not given here
Protocol: (§1) The MIC's in Table II were determined by standard agar-dilution assays. The MIC's in Table III were obtained using a conventional broth-dilution microtiter test.

Mycoplasma hyorhinis = assay: MIC, broth-dilution microtiter test (Table III); assay type: cell-based; parameters: unit not given here
Protocol: as §1

[2] = tested on: Pasteurella multocida 40G; assay: MIC, broth-dilution microtiter test (Table III); assay type: cell-based; parameters: unit not given here
Protocol: as §1

[3] = tested on: Pasteurella multocida 60A; assay: MIC, broth-dilution microtiter test (Table III); assay type: cell-based; parameters: unit not given here; settings: avian isolate
Protocol: as §1

Mycoplasma synoviae = assay: MIC, broth-dilution microtiter test (Table III); assay type: cell-based; parameters: unit not given here
Protocol: as §1

[4] = tested on: Pasteurella multocida 22A; assay: MIC, broth-dilution microtiter test (Table III); assay type: cell-based; parameters: unit not given here
Protocol: as §1

[5] = tested on: Pasteurella multocida 68C; assay: MIC, broth-dilution microtiter test (Table III); assay type: cell-based; parameters: unit not given here
Protocol: as §1

Mycoplasma gallisepticum = assay: MIC, broth-dilution microtiter test (Table III); assay type: cell-based; parameters: unit not given here
Protocol: as §1

Streptococcus sp. 80 = assay: MIC, broth-dilution microtiter test (Table III); assay type: cell-based; parameters: unit not given here
Protocol: as §1

[6] = tested on: Pasteurella haemolytica 41D; assay: MIC, broth-dilution microtiter test (Table III); assay type: cell-based; parameters: unit not given here
Protocol: as §1

[7] = tested on: Pasteurella multocida 17E; assay: MIC, broth-dilution microtiter test (Table III); assay type: cell-based; parameters: unit not given here; settings: bovine isolate
Protocol: as §1

[8] = tested on: Pasteurella haemolytica 23C; assay: MIC, broth-dilution microtiter test (Table III); assay type: cell-based; parameters: unit not given here
Protocol: as §1

Staphylococcus aureus = assay: MIC, broth-dilution microtiter test (Table III); assay type: cell-based; parameters: unit not given here
Protocol: as §1

[9] = tested on: Streptococcus pyogenes C203; assay: ED50 in mice with experimental infections (Table IV); assay type: in vivo; settings: doses given 1 and 4 hours postinfection; for ED50: Streptococcus pyogenes
Method in brief: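 Read-out is ED50, the mg/kg dose protecting half of infected mice; values refer to each of two doses, given 1 and 4 hours after infection.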

[10] = tested on: Streptococcus Group D 9960; assay: MIC, standard agar-dilution assay (Table II); assay type: cell-based; parameters: unit not given here
Protocol: as §1

[11] = tested on: Staphylococcus aureus X400; assay: MIC, standard agar-dilution assay (Table II); assay type: cell-based; parameters: unit not given here; settings: Staphylococcus aureus X400, methicillin-resistant strain
Protocol: as §1

[12] = tested on: Streptococcus pneumoniae Park I; assay: MIC, standard agar-dilution assay (Table II); assay type: cell-based; parameters: unit not given here
Protocol: as §1

[13] = tested on: Haemophilus influenzae Holt; assay: MIC, standard agar-dilution assay (Table II); assay type: cell-based; parameters: unit not given here; settings: ampicillin-sensitive strain
Protocol: as §1

[14] = tested on: Streptococcus pyogenes C203; assay: MIC, standard agar-dilution assay (Table II); assay type: cell-based; parameters: unit not given here
Protocol: as §1

[15] = tested on: Staphylococcus aureus V41; assay: MIC, standard agar-dilution assay (Table II); assay type: cell-based; parameters: unit not given here; settings: Staphylococcus aureus V41, penicillin-resistant strain
Protocol: as §1

[16] = tested on: Staphylococcus epidermidis EPI2; assay: MIC, standard agar-dilution assay (Table II); assay type: cell-based; parameters: unit not given here
Protocol: as §1

[17] = tested on: Staphylococcus epidermidis EPI1; assay: MIC, standard agar-dilution assay (Table II); assay type: cell-based; parameters: unit not given here
Protocol: as §1

[18] = tested on: Staphylococcus aureus S13E; assay: MIC, standard agar-dilution assay (Table II); assay type: cell-based; parameters: unit not given here
Protocol: as §1

[19] = tested on: Streptococcus Group D X66; assay: MIC, standard agar-dilution assay (Table II); assay type: cell-based; parameters: unit not given here
Protocol: as §1

[20] = tested on: Staphylococcus aureus X1.1; assay: MIC, standard agar-dilution assay (Table II); assay type: cell-based; parameters: unit not given here
Protocol: as §1

[21] = tested on: Haemophilus influenzae R252; assay: MIC, standard agar-dilution assay (Table II); assay type: cell-based; parameters: unit not given here; settings: Haemophilus influenzae R252, ampicillin-resistant strain
Protocol: as §1

[22] = C203, oral, read-out: ED50, Oral
[23] = C203, sc, subcutaneous, read-out: ED50, Subcutaneous

| SMILES | minimal inhibitory concentration (MIC) [1] | minimal inhibitory concentration (MIC) (Mycoplasma hyorhinis) | minimal inhibitory concentration (MIC) [2] | minimal inhibitory concentration (MIC) [3] | minimal inhibitory concentration (MIC) (Mycoplasma synoviae) | minimal inhibitory concentration (MIC) [4] | minimal inhibitory concentration (MIC) [5] | minimal inhibitory concentration (MIC) (Mycoplasma gallisepticum) | minimal inhibitory concentration (MIC) (Streptococcus sp. 80) | minimal inhibitory concentration (MIC) [6] | minimal inhibitory concentration (MIC) [7] | minimal inhibitory concentration (MIC) [8] | minimal inhibitory concentration (MIC) (Staphylococcus aureus) | minimal inhibitory concentration (MIC) [10] | minimal inhibitory concentration (MIC) [11] | minimal inhibitory concentration (MIC) [12] | minimal inhibitory concentration (MIC) [13] | minimal inhibitory concentration (MIC) [14] | minimal inhibitory concentration (MIC) [15] | minimal inhibitory concentration (MIC) [16] | also measured |
| --- | --- | --- | --- | --- | --- | --- | --- | --- | --- | --- | --- | --- | --- | --- | --- | --- | --- | --- | --- | --- | --- |
| CCC1OC(=O)CC(O)C(C)C(OC2OC(C)C(O)C(N(C)C)C2O)C(CC=O)CC(C)C(=O)C=CC(C)=CC1COC(=O)CCCC(=O)OC (centres unmarked) [Compound 72] | 12.5 | 25 | 3.12 | 3.12 | 0.78 | 3.12 | 3.12 | 0.195 | 1.56 | 12.5 | 6.25 | 6.25 | 1.56 | 0.25 | 0.25 | 0.03 | 2 | 0.125 | 0.25 | 0.25 | mortality at 30 mg/kg (Pasteurella multocida): 50%; ED50 [9, 22]: 87 mg/kg; ED50 [9, 23]: 2.3 mg/kg; minimal inhibitory concentration (MIC) [17]: 0.25; minimal inhibitory concentration (MIC) [18]: 0.25; minimal inhibitory concentration (MIC) [19]: 0.25; minimal inhibitory concentration (MIC) [20]: 0.125; minimal inhibitory concentration (MIC) [21]: 1 |
| CCC1OC(=O)CC(O)C(C)C(OC2OC(C)C(OC(C)=O)C(N(C)C)C2OC(C)=O)C(CC=O)CC(C)C(=O)C=CC(C)=CC1COC(=O)Cc1ccccc1 (centres unmarked) [Compound 27, 2',4'-Di-O-acetyl-23-O-phenylacetyl-OMT] | 3.12 | 0.097 | 3.12 | 0.78 | 0.05 | 3.12 | 1.56 | 0.05 | 0.05 | 3.12 | 1.56 | 3.12 | 0.097 | 0.125 | 0.25 | 0.03 | 1 | 0.06 | 0.25 | 0.25 | mortality at 30 mg/kg (Pasteurella multocida): 90%; ED50 [9, 22]: 159 mg/kg; ED50 [9, 23]: > 30 mg/kg; minimal inhibitory concentration (MIC) [17]: 0.25; minimal inhibitory concentration (MIC) [18]: 0.25; minimal inhibitory concentration (MIC) [19]: 0.125; minimal inhibitory concentration (MIC) [20]: 0.25; minimal inhibitory concentration (MIC) [21]: 1 |
| CCC1OC(=O)CC(O)C(C)C(OC2OC(C)C(O)C(N(C)C)C2O)C(CC=O)CC(C)C(=O)C=CC(C)=CC1COC(=O)C(N)c1ccccc1 (centres unmarked) [Compound 57] | 6.25 | 6.25 | 3.12 | 3.12 | 0.39 | 3.12 | 3.12 | 0.195 | 0.39 | 6.25 | 6.25 | 6.25 | 3.12 | 0.5 | 1 | 0.03 | 2 | 0.125 | 0.5 | 1 | Deaths in Treated Chicks/Number Treated (Pasteurella multocida): 0/10; ED50, Oral ([9]; oral): 91 mg/kg × 2; ED50, Subcutaneous ([9]; subcutaneous): 2.6 mg/kg × 2; minimal inhibitory concentration (MIC) [17]: 0.5; minimal inhibitory concentration (MIC) [18]: 0.5; minimal inhibitory concentration (MIC) [19]: 0.5; minimal inhibitory concentration (MIC) [20]: 0.5; minimal inhibitory concentration (MIC) [21]: 2 |
| CCC1OC(=O)CC(O)C(C)C(OC2OC(C)C(O)C(N(C)C)C2O)C(CC=O)CC(C)C(=O)C=CC(C)=CC1COC(=O)C(C)(C)C (centres unmarked) [Compound 68] | 6.25 | 0.097 | 3.12 | 3.12 | < 0.048 | 3.12 | 1.56 | 0.097 | < 0.78 | 6.25 | 3.12 | 3.12 | 1.56 | 0.25 | 0.25 | 0.06 | 1 | 0.125 | 0.25 | 0.25 | mortality at 30 mg/kg (Pasteurella multocida): 0%; ED50 [9, 22]: > 100 mg/kg; ED50 [9, 23]: 3.8 mg/kg; minimal inhibitory concentration (MIC) [17]: 0.25; minimal inhibitory concentration (MIC) [18]: 0.25; minimal inhibitory concentration (MIC) [19]: 0.25; minimal inhibitory concentration (MIC) [20]: 0.25; minimal inhibitory concentration (MIC) [21]: 2 |
| CCC1OC(=O)CC(O)C(C)C(OC2OC(C)C(O)C(N(C)C)C2O)C(CC=O)CC(C)C(=O)C=CC(C)=CC1COC(=O)OC (centres unmarked) [Compound 74] | 6.25 | 0.78 | 12.5 | 1.56 | 0.195 | 25 | 12.5 | < 0.048 | 0.39 | 1.56 | 1.56 | 3.12 | 1.56 | 0.25 | 0.5 | 0.03 | 1 | 0.25 | 0.25 | 0.25 | mortality at 30 mg/kg (Pasteurella multocida): 0%; ED50 [9, 22]: > 100 mg/kg; ED50 [9, 23]: 3 mg/kg; minimal inhibitory concentration (MIC) [17]: 0.25; minimal inhibitory concentration (MIC) [18]: 0.25; minimal inhibitory concentration (MIC) [19]: 0.5; minimal inhibitory concentration (MIC) [20]: 0.25; minimal inhibitory concentration (MIC) [21]: 2 |
